Read-outs that look alike come from different tables or passages of the source.
How the values were obtained:
Test in all cases: Voltage-clamp electrophysiology, nAChR expressed in X. laevis oocytes
Assay type in all cases: cell-based, D. melanogaster
[1] = target: T1, Dα2/Dα3/Dβ1 nAChR (Drosophila melanogaster, UniProt P04755+P17644+Q9W3G6); details: Dα2/Dα3/Dβ1 nAChR, mean ± standard error (n = 5)
T1 construct: Dα2 (NP_524482); Dβ1 (NP_523927); expressed in transfected cells; host or cells: Xenopus laevis oocytes (cRNA injection)
Method: (§1) cDNAs of the nAChR subunits and co-factors were cloned into pcDNA3.1 (+) vector (Thermo Fisher Scientific). The accession numbers of the nAChR subunits and cofactors are as follows: Dα1 (NP_524481), Dα2 (NP_524482), Dα3 (NP_525079), Dα4 (CAB77445), Dβ1 (NP_523927), Dβ2 (NP_524483), Dβ3 (NP_525098), DmRIC-3 (CAP16647), DmUNC-50 (NP_649813), and DmTMX3 (NP_648847). cRNAs were prepared using the mMESSAGE mMACHINE T7 ULTRA Transcription Kit (Thermo Fisher Scientific, #AM1345) according to the manual with the cDNA template which was cut with appropriate restriction enzymes at the 3’ end of the cDNA.
(§2) We minimised the use of X. laevis according to the UK Animals (Scientific Procedures) Act, 1986. […] Oocytes were defolliculated after collagenase treatment in Ca^2+-free standard oocyte saline (Ca^2+-free SOS). cRNAs of the nAChR subunits and co-factors mixed at a concentration of 0.1 mg/mL was injected into oocytes at a volume of 50 nL. Then the oocytes were incubated in the incubation medium (SOS supplemented with sodium pyruvate (Nacalai Tesque, #13058–12), penicillin-streptomycin (MilliporeSigma, #P4333), gentamycin (Nacalai Tesque, #16672–04), and 4% horse serum (Thermo Fisher Scientific, #26050–070) for 3−4 days prior to electrophysiology.
(§3) Each defolliculated X. laevis oocyte was secured in a Perspex recording chamber and perfused with the standard oocyte saline (SOS) containing 0.5 μM atropine (SOSA) at a flow rate of 7−10 mL/min [48]. Two glass electrodes filled with 2 M KCl were impaled into each oocyte and the membrane potential was clamped at -100 mV. […] The peak amplitude of the response was measured and analysed by pCLAMP (Molecular Devices, USA).
(§4) Y=Imax/1+10^(logEC50‐X)nH
(§5) Where Y is the normalised response, X is log[ligand (M)], EC50 is the half maximal concentration (M), Imax is the maximum normalised response and nH is the Hill coefficient.

[2] = target: T2, Dα1/Dα2/Dβ1 nAChR (Drosophila melanogaster, UniProt P04755+P09478+P17644)
T2 construct: Dα1 (NP_524481); Dα2 (NP_524482); Dβ1 (NP_523927); expressed in transfected cells; host or cells: Xenopus laevis oocytes (cRNA injection)
Method: as §1, §2, §3, §4, §5

[3] = test system: T3, Dα1/Dα2/Dα3/Dβ1/Dβ2 nAChR; details: mean ± standard error (n = 5)
T3 construct: Dα1 (NP_524481); Dα2 (NP_524482); Dβ1 (NP_523927); Dβ2 (NP_524483); expressed in transfected cells; host or cells: Xenopus laevis oocytes (cRNA injection)
Method: as §1, §2, §3, §4, §5

[4] = target: T4, Dα1/Dβ1/Dβ2 nAChR (Drosophila melanogaster, UniProt P04755+P09478+P25162)
T4 construct: Dα1 (NP_524481); Dβ1 (NP_523927); Dβ2 (NP_524483); expressed in transfected cells; host or cells: Xenopus laevis oocytes (cRNA injection)
Method: as §1, §2, §3, §4, §5

[5] = target: T5, Dα1/Dβ1 nAChR (Drosophila melanogaster, UniProt P04755+P09478); details: mean ± standard error (n = 5)
T5 construct: Dα1 (NP_524481); Dβ1 (NP_523927); expressed in transfected cells; host or cells: Xenopus laevis oocytes (cRNA injection)
Method: as §1, §2, §3, §4, §5

[6] = target: T6, Dα1/Dα2/Dβ1/Dβ2 nAChR (Drosophila melanogaster, UniProt P04755+P09478+P17644+P25162); details: mean ± standard error (n = 5)
T6 construct: Dα1 (NP_524481); Dα2 (NP_524482); Dβ1 (NP_523927); Dβ2 (NP_524483); expressed in transfected cells; host or cells: Xenopus laevis oocytes (cRNA injection)
Method: as §1, §2, §3, §4, §5

[7] = normalised to maximum ACh response
[8] = efficacy, mean ± standard error (n = 5)
[9] = normalised to maximum ACh response, mean ± standard error (n = 5)
[10] = mean ± standard error (n = 5), read-out: pEC50 (converted)

Structure (SMILES)	EC50 [1] [nM]	Imax [1, 7]	Imax ([1]; efficacy)	Imax [2, 8]	Imax [2, 9]	Imax ([3]; efficacy)	pEC50 [3]	Imax [3, 7]	Imax [4, 8]	Imax [4, 9]	Imax ([5]; efficacy)	EC50 [5] [nM]	Imax [5, 7]	Imax ([6]; efficacy)	EC50 [6] [nM]	Imax [6, 7]	EC50 [2, 10] [nM]	EC50 ([4]; read-out: EC50) [nM]	other results
N#C/N=C1\SCCN1Cc1ccc(Cl)nc1 [Thiacloprid, thiacloprid]	120	0.045 ± 0.006	0.045	0.025	0.025 ± 0.001	0.059	7.18 ± 0.17	0.059 ± 0.006	0.043	0.043 ± 0.002	0.091	16.2	0.091 ± 0.009	0.074	79.4	0.074 ± 0.014	–	–	EC50 ([2]; read-out: EC50): 120 nM; Imax ([3]; normalised to maximum ACh response, listed as thiacloprid): 0.059; EC50 [4, 10]: 13.8 nM
CC(=O)OCC[N+](C)(C)C [ACh, acetylcholine]	–	–	1	1	–	1	–	–	1	–	1	–	–	1	–	–	–	–	–
CN/C(=N\[N+](=O)[O-])NCc1cnc(Cl)s1 [Clothianidin, clothianidin]	155	0.882 ± 0.076	0.882	0.699	0.699 ± 0.034	0.812	6.59 ± 0.07	0.812 ± 0.019	0.360	0.360 ± 0.016	0.508	74.1	0.508 ± 0.015	0.800	490	0.800 ± 0.033	8510	229	Imax ([3]; normalised to maximum ACh response, listed as clothianidin): 0.812
O=[N+]([O-])NC1=NCCN1Cc1ccc(Cl)nc1 [Imidacloprid, imidacloprid]	132	0.101 ± 0.016	0.101	0.031	0.031 ± 0.002	0.142	6.47 ± 0.14	0.142 ± 0.011	0.076	0.076 ± 0.006	0.122	69.2	0.122 ± 0.007	0.165	355	0.165 ± 0.016	195	102	Imax ([3]; normalised to maximum ACh response, listed as imidacloprid): 0.142

Reference: paper PMC9934367, “Functional impact of subunit composition and compensation on Drosophila melanogaster nicotinic receptors–targets of neonicotinoids” (PLOS Genetics, 2023)
